This passage reports IC50, MIC100 and MIC50 results from ChEMBL document CHEMBL4052712, “Design and optimization of highly-selective, broad spectrum fungal CYP51 inhibitors” (Bioorg Med Chem Lett, 2017).

The source made the active and inactive calls. The calls are words filed in the database; no cut-off is given here. Bounds are passed on as bounds.

For one series, the target named is Cytochrome P450 3A4 (Homo sapiens, UniProt P08684). In words: Inhibition of CYP3A4 in human hepatocyte microsomes using testosterone substrate by HPLC/MS/MS method. It counts as ADME.
The target in series [1] is Lanosterol 14-alpha demethylase (Aspergillus) (UniProt B8NUK6+Q9P8R0+G4WW85). As to the kind of experiment: Inhibition of CYP51 in Aspergillus fumigatus assessed as inhibition of microbe growth incubated for 48 to 168 hrs by CLSI M27-A3 guideline based method.
The target of series [2] is Lanosterol 14-alpha demethylase (Candida albicans (strain SC5314 / ATCC MYA-2876) (Yeast), UniProt P10613). In words: Inhibition of CYP51 in Candida albicans assessed as inhibition of microbe growth incubated for 48 hrs by CLSI M27-A3 guideline based method.
Chain of Lanosterol 14-alpha demethylase (P10613 whole entry): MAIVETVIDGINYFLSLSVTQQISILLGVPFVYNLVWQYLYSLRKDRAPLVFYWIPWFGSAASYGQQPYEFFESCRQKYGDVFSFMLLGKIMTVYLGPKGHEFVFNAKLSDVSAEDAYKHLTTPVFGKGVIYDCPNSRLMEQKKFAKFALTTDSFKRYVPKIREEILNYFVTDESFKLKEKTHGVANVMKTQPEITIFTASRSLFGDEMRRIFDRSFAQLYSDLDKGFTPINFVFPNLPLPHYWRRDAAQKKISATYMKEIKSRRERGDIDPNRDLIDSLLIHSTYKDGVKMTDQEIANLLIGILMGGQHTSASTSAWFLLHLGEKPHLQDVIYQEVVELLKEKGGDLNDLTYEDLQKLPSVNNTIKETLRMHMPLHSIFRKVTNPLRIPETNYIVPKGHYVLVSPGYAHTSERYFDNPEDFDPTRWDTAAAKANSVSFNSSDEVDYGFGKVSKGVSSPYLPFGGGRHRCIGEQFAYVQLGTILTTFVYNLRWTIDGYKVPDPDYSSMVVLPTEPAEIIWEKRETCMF

Chain of Cytochrome P450 3A4 (P08684 whole entry): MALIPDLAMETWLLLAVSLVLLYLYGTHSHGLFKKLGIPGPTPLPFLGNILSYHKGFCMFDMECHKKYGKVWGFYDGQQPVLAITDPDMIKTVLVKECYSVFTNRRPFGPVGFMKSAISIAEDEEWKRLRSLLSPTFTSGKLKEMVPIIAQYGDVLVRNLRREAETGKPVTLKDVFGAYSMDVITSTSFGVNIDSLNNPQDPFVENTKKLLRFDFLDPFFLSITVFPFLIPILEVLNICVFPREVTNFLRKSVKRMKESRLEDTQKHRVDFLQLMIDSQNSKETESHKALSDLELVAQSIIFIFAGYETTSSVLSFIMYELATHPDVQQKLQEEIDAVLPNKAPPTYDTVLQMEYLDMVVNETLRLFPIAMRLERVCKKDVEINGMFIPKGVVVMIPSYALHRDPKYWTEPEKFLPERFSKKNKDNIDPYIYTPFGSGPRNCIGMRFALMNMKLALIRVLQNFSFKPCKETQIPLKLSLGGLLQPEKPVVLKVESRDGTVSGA

In turn, `OC(Cn1cnnn1)(c1ccc(F)cc1F)C(F)(F)c1ccc(C#Cc2ccc(OCc3ccc(F)cc3)cc2)cn1` (centres undefined) had an IC50 on Cytochrome P450 3A4 of over 200 µM. Besides, in series [1], the MIC100 was found to be 32 µg/mL. The MIC50 in series [2] was found to be 0.0625 µg/mL.

`OC(Cn1cnnn1)(c1ccc(F)cc1F)C(F)(F)c1ccc(C#Cc2ccc(OCc3ccc(C(F)(F)F)cc3)cc2)cn1` (centres undefined) came in with an IC50 against Cytochrome P450 3A4 of over 200 µM. Further, the MIC100 in series [1] was over 64 µg/mL. In addition, the MIC50 in series [2] was 0.125 µg/mL.

`N#Cc1ccc(COc2ccc(C#Cc3ccc(C(F)(F)C(O)(Cn4cnnn4)c4cc(F)ccc4F)nc3)cc2)cc1` (centres undefined): the IC50 against Cytochrome P450 3A4 was over 200 µM. Moreover, the MIC100 in series [1] was over 64 µg/mL. Moreover, the MIC50 in series [2] is 0.016 µg/mL.

In the case of `N#Cc1ccc(COc2ccc(C#Cc3ccc(C(F)(F)C(O)(Cn4cnnn4)c4ccc(F)cc4F)nc3)cc2)c(F)c1` (centres undefined), at Cytochrome P450 3A4, the IC50 was over 200 µM. In series [1], the MIC100 is over 64 µg/mL. For the same molecule, the MIC50 in series [2] came out at 0.16 µg/mL.

As for `OC(Cn1cnnn1)(c1ccc(F)cc1F)C(F)(F)c1ccc(C#Cc2ccc(F)cc2)cn1` (single isomer, unassigned; (+)) [listing 1 of 2 here], the IC50 against Cytochrome P450 3A4 was found to be 198 µM. Besides, the MIC50 in series [2] is under 0.001 µg/mL.

As for `CNC(=O)c1ccc(COc2ccc(C#Cc3ccc(C(F)(F)C(O)(Cn4cnnn4)c4ccc(F)cc4F)nc3)cc2)cc1` (centres undefined), 122 µM corresponded to half-maximal inhibition on Cytochrome P450 3A4 (IC50). Also, the MIC100 in series [1] was over 64 µg/mL. Besides, the MIC50 in series [2] turned out to be 0.031 µg/mL.

Consider `OC(Cn1cnnn1)(c1ccc(F)cc1F)C(F)(F)c1ccc(C#Cc2ccc(Cl)cc2)cn1` (centres undefined), for which the IC50 at Cytochrome P450 3A4 was over 200 µM. For the same molecule, the MIC100 in series [1] is over 64 µg/mL. Further, the MIC50 in series [2] was 0.004 µg/mL.

With `OC(Cn1cnnn1)(c1ccc(F)cc1F)C(F)(F)c1ccc(C#Cc2ccc(OCC(F)F)cc2)cn1` (centres undefined), half-maximal inhibition against Cytochrome P450 3A4 (IC50) required 60 µM. The MIC100 in series [1] was 64 µg/mL. Besides, the MIC50 in series [2] is under 0.001 µg/mL.

With `OC(Cn1cnnn1)(c1ccc(F)cc1F)C(F)(F)c1ccc(C#Cc2ccc(NCC(F)(F)F)cc2)cn1` (centres undefined), half-maximal inhibition against Cytochrome P450 3A4 (IC50) required 10 µM. The MIC100 in series [1] is 4 µg/mL. In addition, the MIC50 in series [2] is under 0.001 µg/mL.

For `N#Cc1ccc(COc2ccc(C#Cc3ccc(C(F)(F)C(O)(Cn4cnnn4)c4ccc(F)cc4F)nc3)cc2)cc1F` (stereo in doubt; 8a) [listing 1 of 2 here], the MIC100 in series [1] was determined as 1 µg/mL.

For the molecule `N#Cc1ccc(COc2ccc(C#Cc3ccc(C(F)(F)C(O)(Cn4cnnn4)c4ccc(F)cc4F)nc3)cc2)cc1F` (stereo in doubt; 8a) [listing 2 of 2 here], the IC50 at Cytochrome P450 3A4 was over 200 µM. Further, the MIC50 in series [2] came out at 0.031 µg/mL.

`OC(Cn1cnnn1)(c1ccc(F)cc1F)C(F)(F)c1ccc(C#Cc2ccc(F)cc2)cn1` (single isomer, unassigned; (-)): the MIC100 result in series [1] was “inactive”.

With `N#Cc1ccc(COc2ccc(C#Cc3ccc(C(F)(F)C(O)(Cn4cnnn4)c4ccc(F)cc4F)nc3)cc2)cc1F` (single isomer, unassigned; (+)) [listing 1 of 2 here], on Cytochrome P450 3A4, the IC50 is over 200 µM. Besides, the MIC50 in series [2] came out at 0.004 µg/mL.

`N#Cc1ccc(OCc2ccc(C#Cc3ccc(C(F)(F)C(O)(Cn4cnnn4)c4ccc(F)cc4F)nc3)cc2)cc1` (centres undefined) yielded an IC50 against Cytochrome P450 3A4 of over 200 µM. In addition, the MIC100 in series [1] was over 64 µg/mL. The MIC50 in series [2] was 0.031 µg/mL.

Turning to `OC(Cn1cnnn1)(c1ccc(F)cc1F)C(F)(F)c1ccc(C#Cc2ccc(OCc3ccc(CC(F)F)cc3)cc2)cn1` (single isomer, unassigned; (+)) [listing 1 of 2 here], the MIC100 in series [1] came to 2 µg/mL.

On Cytochrome P450 3A4, `OC(Cn1cnnn1)(c1ccc(F)cc1F)C(F)(F)c1ccc(C#Cc2ccc(C(F)(F)F)cc2)cn1` (centres undefined) had an IC50 of over 200 µM. For the same molecule, the MIC100 in series [1] was over 64 µg/mL. Further, the MIC50 in series [2] amounted to 0.016 µg/mL.

For `N#Cc1ccc(COc2ccc(C#Cc3ccc(C(F)(F)C(O)(Cn4cnnn4)c4ccc(F)cc4F)nc3)cc2)cc1F` (single isomer, unassigned; (+)) [listing 2 of 2 here], in series [1], the MIC100 turned out to be 0.5 µg/mL.

Consider `N#Cc1ccc(COc2ccc(C#Cc3ccc(C(F)(F)C(O)(Cn4cnnn4)c4ccc(F)cc4F)nc3)cc2)cc1` (stereo in doubt; 7f) [listing 1 of 2 here], for which the MIC100 in series [1] turned out to be 8 µg/mL.

For the molecule `N#Cc1ccc(COc2ccc(C#Cc3ccc(C(F)(F)C(O)(Cn4cnnn4)c4ccc(Cl)cc4F)nc3)cc2)cc1` (centres undefined), the IC50 against Cytochrome P450 3A4 was over 200 µM. The MIC100 in series [1] is over 64 µg/mL. The MIC50 in series [2] was found to be 0.031 µg/mL.

At Cytochrome P450 3A4, `OC(Cn1cnnn1)(c1ccc(F)cc1F)C(F)(F)c1ccc(C#Cc2cccc(F)c2)cn1` (centres undefined) displayed an IC50 of over 200 µM. For the same molecule, the MIC100 in series [1] is over 64 µg/mL. Also, in series [2], the MIC50 was 0.004 µg/mL.

`OC(Cn1cnnn1)(c1ccc(F)cc1F)C(F)(F)c1ccc(C#Cc2ccc(F)cc2)cn1` (stereo in doubt; 6a) [listing 1 of 2 here]: the MIC100 in series [1] is over 64 µg/mL.

In the case of `N#Cc1cccc(COc2ccc(C#Cc3ccc(C(F)(F)C(O)(Cn4cnnn4)c4ccc(F)cc4F)nc3)cc2)c1` (centres undefined), the IC50 against Cytochrome P450 3A4 was over 200 µM. For the same molecule, in series [1], the MIC100 was over 64 µg/mL. In addition, in series [2], the MIC50 was 0.016 µg/mL.

In the case of `N#Cc1ccc(COc2ccc(C#Cc3ccc(C(F)(F)C(O)(Cn4cnnn4)c4ccc(F)cc4F)nc3)cc2)cc1` (stereo in doubt; 7f) [listing 2 of 2 here], at Cytochrome P450 3A4, the half-maximal inhibitory concentration (IC50) was over 200 µM. The MIC50 in series [2] was found to be 0.031 µg/mL.

At Cytochrome P450 3A4, `OC(Cn1cnnn1)(c1ccc(F)cc1F)C(F)(F)c1ccc(C#Cc2ccc(OCc3ccc(CC(F)F)cc3)cc2)cn1` (stereo in doubt; 7e) [listing 1 of 2 here] returned an IC50 of over 200 µM. Besides, in series [2], the MIC50 was 0.0625 µg/mL.

For `OC(Cn1cnnn1)(c1ccc(F)cc1F)C(F)(F)c1ccc(C#Cc2ccc(F)cc2)cn1` (single isomer, unassigned; (+)) [listing 2 of 2 here], the MIC100 in series [1] worked out at 16 µg/mL.

Consider `OC(Cn1cnnn1)(c1ccc(F)cc1F)C(F)(F)c1ccc(C#Cc2ccc(OCc3ccc(CC(F)F)cc3)cc2)cn1` (stereo in doubt; 7e) [listing 2 of 2 here], for which the MIC100 in series [1] came out at 4 µg/mL.

As to `OC(Cn1cnnn1)(c1ccc(F)cc1F)C(F)(F)c1ccc(C#Cc2ccc(OCc3ccc(OC(F)(F)F)cc3)cc2)cn1` (centres undefined), the half-maximal inhibitory concentration (IC50) against Cytochrome P450 3A4 was over 200 µM. The MIC100 in series [1] was over 64 µg/mL. Further, in series [2], the MIC50 was 0.25 µg/mL.

For `OC(Cn1cnnn1)(c1ccc(F)cc1F)C(F)(F)c1ccc(C#Cc2cccc(Cl)c2)cn1` (centres undefined), the IC50 on Cytochrome P450 3A4 is over 200 µM. Moreover, in series [1], the MIC100 is over 64 µg/mL. The MIC50 in series [2] was determined as 0.031 µg/mL.

As for `OC(Cn1cnnn1)(c1ccc(F)cc1F)C(F)(F)c1ccc(C#Cc2ccc(OCc3ccc(CC(F)F)cc3)cc2)cn1` (single isomer, unassigned; (+)) [listing 2 of 2 here], the IC50 on Cytochrome P450 3A4 is over 200 µM. In addition, in series [2], the MIC50 was determined as 0.031 µg/mL.

Turning to `OC(Cn1cnnn1)(c1ccc(F)cc1F)C(F)(F)c1ccc(C#Cc2ccc(F)cc2)cn1` (stereo in doubt; 6a) [listing 2 of 2 here], 100 µM corresponded to half-maximal inhibition on Cytochrome P450 3A4 (IC50).

Molecule `O[C@@](Cn1cnnn1)(c1ccc(F)cc1F)C(F)(F)c1ccc(-c2ccc(OCC(F)(F)F)cc2)cn1` [OTESECONAZOLE] returned an IC50 against Cytochrome P450 3A4 of 65 µM. For the same molecule, in series [1], the MIC100 is over 64 µg/mL. Further, the MIC50 in series [2] is under 0.001 µg/mL.
